Data as given in patent US20140328809A1, “METHODS OF INDUCING CHONDROGENESIS IN MESENCHYMAL STEM CELLS USING SYNTHETIC TRITERPENOIDS” (TRUSTEES OF DARTMOUTH COLLEGE, priority 2011, published 2014).

Legend:
[1] = test system: SOX-9; assay: Quantitative RT-PCR analysis on calvaria: SOX-9; assay type: cell-based, mouse; conditions: 7 days of culture, normalized to control = 1.00
Description: (§1) All chemicals were from Sigma-Aldrich. Primers for RT-PCR were from Applied Biosystems. The isolation of calvaria was essentially performed as described previously (Garrett, 2003; Garret et al., 2003). The calvaria were cultured in Biggers, Gwatkins, Judah medium supplemented with 1 mg/mL of bovine serum albumin (Cohn fraction V), 100 U/mL each of penicillin/streptomycin, and 0.292 mg/mL of glutaimine. On Day 1, the calvaria were treated with CDDO-Im or CDDO-EA. On Day 4, the medium was replaced with fresh medium, again containing either CDDO-Im or CDDO-EA. On Day 7, the calvaria were collected and either stored at −80° C. for further RNA analysis or fixed in 10% buffered formalin for 24 h and transferred to 80% ethanol for histological analysis.
(§2) After 7 days of culture, RNA was isolated from the calvaria and quantitative RT-PCR analysis was performed for more than 15 different markers including: SOX9 (a transcription factor specific for cartilage), collagen type II (alpha 1), all three isoforms of TGF-β, BMPs 2 and 4, BMP receptor II, Smads 3, 4, 6, and 7, tissue inhibitors of metalloproteinases (TIMP-1 and TIMP-2), and matrix metalloproteinase-9 (MMP-9). […] Both triterpenoids are strong inhibitors of the expression of MMP-9; CDDO-EA (200 nM), caused almost 80% inhibition of the expression of this metalloproteinase, which is known to be involved in the degradation of cartilage (Shinoda et al., 2008).

[2] = test system: Col II alpha1; assay: Quantitative RT-PCR analysis on calvaria: Col II alpha1; assay type: cell-based, mouse; conditions: 7 days of culture, normalized to control = 1.00
Description: as §1, §2

[3] = test system: TGF-β1; assay: Quantitative RT-PCR analysis on calvaria: TGF-β1; assay type: cell-based, mouse; conditions: 7 days of culture, normalized to control = 1.00
Description: as §1, §2

[4] = test system: TGF-β2; assay: Quantitative RT-PCR analysis on calvaria: TGF-β2; assay type: cell-based, mouse; conditions: 7 days of culture, normalized to control = 1.00
Description: as §1, §2

[5] = test system: TGF-β3; assay: Quantitative RT-PCR analysis on calvaria: TGF-β3; assay type: cell-based, mouse; conditions: 7 days of culture, normalized to control = 1.00
Description: as §1, §2

[6] = test system: BMP-2; assay: Quantitative RT-PCR analysis on calvaria: BMP-2; assay type: cell-based, mouse; conditions: 7 days of culture, normalized to control = 1.00
Description: as §1, §2

[7] = test system: BMP-4; assay: Quantitative RT-PCR analysis on calvaria: BMP-4; assay type: cell-based, mouse; conditions: 7 days of culture, normalized to control = 1.00
Description: as §1, §2

[8] = test system: BMPRII; assay: Quantitative RT-PCR analysis on calvaria: BMPRII; assay type: cell-based, mouse; conditions: 7 days of culture, normalized to control = 1.00
Description: as §1, §2

[9] = test system: Smad3; assay: Quantitative RT-PCR analysis on calvaria: Smad3; assay type: cell-based, mouse; conditions: 7 days of culture, normalized to control = 1.00
Description: as §1, §2

[10] = test system: Smad4; assay: Quantitative RT-PCR analysis on calvaria: Smad4; assay type: cell-based, mouse; conditions: 7 days of culture, normalized to control = 1.00
Description: as §1, §2

[11] = test system: Smad6; assay: Quantitative RT-PCR analysis on calvaria: Smad6; assay type: cell-based, mouse; conditions: 7 days of culture, normalized to control = 1.00
Description: as §1, §2

[12] = test system: Smad7; assay: Quantitative RT-PCR analysis on calvaria: Smad7; assay type: cell-based, mouse; conditions: 7 days of culture, normalized to control = 1.00
Description: as §1, §2

[13] = test system: TIMP-1; assay: Quantitative RT-PCR analysis on calvaria: TIMP-1; assay type: cell-based, mouse; conditions: 7 days of culture, normalized to control = 1.00
Description: as §1, §2

[14] = test system: TIMP-2; assay: Quantitative RT-PCR analysis on calvaria: TIMP-2; assay type: cell-based, mouse; conditions: 7 days of culture, normalized to control = 1.00
Description: as §1, §2

[15] = test system: MMP-9; assay: Quantitative RT-PCR analysis on calvaria: MMP-9; assay type: cell-based, mouse; conditions: 7 days of culture, normalized to control = 1.00
Description: as §1, §2

[16] = test system: newborn mouse calvaria; assay: Histological analysis (toluidine blue) of chondrogenesis in newborn mouse calvarial organ cultures; assay type: cell-based; conditions: 200 nM, 7 days, FIG. 1a, at least 3 sets of replicate experiments
Description: as §1
(§3) After fixation for 24 h, the calvaria were decalcified in EDTA, embedded in paraffin, and cut into 4 μm sections. The sections were stained either with modified hematoxylin and eosin or with toluidine blue (1% in 70% ethanol for 20 min, followed by destaining in 70%, 90%, and 100% ethanol for 15 seconds), placed in xylene twice, and then mounted (Garret, 2003). Procedures for immunofluroescence were performed essentially as previously described (Medici et al., 2010). […]

[17] = test system: collagen type II (COL2A1); assay: Immunohistochemical analysis of collagen type II in calvaria; assay type: cell-based, mouse; conditions: 200 nM, FIG. 1b
Description: as §1, §3

[18] = test system: SOX9; assay: Western blot of chondrocyte marker SOX9 in bone marrow-derived MSCs; assay type: cell-based, human; conditions: 100 nM for 7 days; MSCs in chondrogenic culture medium; not detectable in control
Description: (§4) Human bone marrow-derived stromal cells (ScienCell Research Laboratories), which contain a population of responsive mesenchymal stem cells, were grown in mesenchymal stem cell medium (ScienCell Research Laboratories). MSCs were serum-starved 24 hours prior to all experimental conditions. The synthesis of the synthetic triterpenoids, CDDO-Im and CDDO-EA, have been previously described (Sporn et al., 2011).
(§5) For directed chondrocytic differentiation, MSCs were grown in StemPro chondrogenic culture medium (Invitrogen) prepared by the technique of Kassem (2004), which is incorporated herein by reference. See also Medici et al. (2010), which is also incorporated herein by reference. CDDO-Im and CDDO-EA were added to the cultures at a concentration of 100 nM for 7 days. Western blot analysis was performed using the following antibodies at concentrations (and using protocols) recommended by the respective manufacturers: SOX9, COL2A1 (Santa Cruz Biotechnology), Aggrecan (Abcam), β-actin (Sigma-Aldrich). β-actin was used as a loading control. HRP-conjugated IgG TrueBlot reagents (eBioscience) were used at a dilution of 1:1000.

[19] = test system: COL2A1; assay: Western blot of chondrocyte marker COL2A1 in bone marrow-derived MSCs; assay type: cell-based, human; conditions: 100 nM for 7 days; MSCs in chondrogenic culture medium; not detectable in control
Description: as §4, §5

[20] = test system: Aggrecan; assay: Western blot of chondrocyte marker Aggrecan in bone marrow-derived MSCs; assay type: cell-based, human; conditions: 100 nM for 7 days; MSCs in chondrogenic culture medium; not detectable in control
Description: as §4, §5

`CC1(C)CC[C@]2(C(=O)n3ccnc3)CC[C@]3(C)[C@H](C(=O)C=C4[C@@]5(C)C=C(C#N)C(=O)C(C)(C)[C@@H]5CC[C@]43C)[C@@H]2C1` [CDDO-Im, CDDO-Imidazolide] was tested, and the “SOX-9 expression (quantitative RT-PCR)” value ([1]; 50 nM) was 1.26 ± 0.08, the “SOX-9 expression (quantitative RT-PCR)” value ([1]; 200 nM) was 1.33 ± 0.05 and the “SOX-9 expression (quantitative RT-PCR)” value ([1]; 500 nM) was 1.83 ± 0.13. The “Col II alpha1 expression (quantitative RT-PCR)” value (from here on “Col II alpha1 expression”) ([2]; 50 nM) was 1.45 ± 0.09, the “Col II alpha1 expression” value ([2]; 200 nM) was 1.32 ± 0.23 and the “Col II alpha1 expression” value ([2]; 500 nM) was 1.72 ± 0.39. The “TGF-β1 expression (quantitative RT-PCR)” value ([3]; 50 nM) was 0.96 ± 0.07, the “TGF-β1 expression (quantitative RT-PCR)” value ([3]; 200 nM) was 1.08 ± 0.12 and the “TGF-β1 expression (quantitative RT-PCR)” value ([3]; 500 nM) was 1.46 ± 0.12. The “TGF-β2 expression (quantitative RT-PCR)” value ([4]; 50 nM) was 1.17 ± 0.05, the “TGF-β2 expression (quantitative RT-PCR)” value ([4]; 200 nM) was 1.15 ± 0.09 and the “TGF-β2 expression (quantitative RT-PCR)” value ([4]; 500 nM) was 1.17 ± 0.10. The “TGF-β3 expression (quantitative RT-PCR)” value ([5]; 50 nM) was 1.30 ± 0.07, the “TGF-β3 expression (quantitative RT-PCR)” value ([5]; 200 nM) was 1.52 ± 0.16 and the “TGF-β3 expression (quantitative RT-PCR)” value ([5]; 500 nM) was 1.66 ± 0.13. For the same compound, the “BMP-2 expression (quantitative RT-PCR)” value ([6]; 50 nM) was 1.17 ± 0.07, the “BMP-2 expression (quantitative RT-PCR)” value ([6]; 200 nM) was 1.60 ± 0.19 and the “BMP-2 expression (quantitative RT-PCR)” value ([6]; 500 nM) was 3.14 ± 0.53. For the same compound, the “BMP-4 expression (quantitative RT-PCR)” value ([7]; 50 nM) was 0.97 ± 0.05, the “BMP-4 expression (quantitative RT-PCR)” value ([7]; 200 nM) was 0.98 ± 0.06 and the “BMP-4 expression (quantitative RT-PCR)” value ([7]; 500 nM) was 1.35 ± 0.22. For the same compound, the “BMPRII expression (quantitative RT-PCR)” value ([8]; 50 nM) was 1.09 ± 0.06, the “BMPRII expression (quantitative RT-PCR)” value ([8]; 200 nM) was 1.22 ± 0.11 and the “BMPRII expression (quantitative RT-PCR)” value ([8]; 500 nM) was 1.46 ± 0.14. For the same compound, the “Smad3 expression (quantitative RT-PCR)” value ([9]; 50 nM) was 0.97 ± 0.07, the “Smad3 expression (quantitative RT-PCR)” value ([9]; 200 nM) was 0.90 ± 0.05 and the “Smad3 expression (quantitative RT-PCR)” value ([9]; 500 nM) was 1.35 ± 0.19. The “Smad4 expression (quantitative RT-PCR)” value ([10]; 50 nM) was 0.96 ± 0.06, the “Smad4 expression (quantitative RT-PCR)” value ([10]; 200 nM) was 1.03 ± 0.09 and the “Smad4 expression (quantitative RT-PCR)” value ([10]; 500 nM) was 1.26 ± 0.09. The “Smad6 expression (quantitative RT-PCR)” value ([11]; 50 nM) was 0.95 ± 0.05, the “Smad6 expression (quantitative RT-PCR)” value ([11]; 200 nM) was 1.23 ± 0.14 and the “Smad6 expression (quantitative RT-PCR)” value ([11]; 500 nM) was 1.77 ± 0.19. The “Smad7 expression (quantitative RT-PCR)” value ([12]; 50 nM) was 1.05 ± 0.07, the “Smad7 expression (quantitative RT-PCR)” value ([12]; 200 nM) was 1.32 ± 0.14 and the “Smad7 expression (quantitative RT-PCR)” value ([12]; 500 nM) was 1.78 ± 0.18. For the same compound, the “TIMP-1 expression (quantitative RT-PCR)” value ([13]; 50 nM) was 1.43 ± 0.19, the “TIMP-1 expression (quantitative RT-PCR)” value ([13]; 200 nM) was 1.83 ± 0.18 and the “TIMP-1 expression (quantitative RT-PCR)” value ([13]; 500 nM) was 3.00 ± 0.65. The “TIMP-2 expression (quantitative RT-PCR)” value ([14]; 50 nM) was 1.24 ± 0.10, the “TIMP-2 expression (quantitative RT-PCR)” value ([14]; 200 nM) was 1.67 ± 0.19 and the “TIMP-2 expression (quantitative RT-PCR)” value ([14]; 500 nM) was 2.62 ± 0.29. For the same compound, the “MMP-9 expression (quantitative RT-PCR)” value ([15]; 50 nM) was 0.73 ± 0.16, the “MMP-9 expression (quantitative RT-PCR)” value ([15]; 200 nM) was 0.44 ± 0.12 and the “MMP-9 expression (quantitative RT-PCR)” value ([15]; 500 nM) was 0.26 ± 0.03. The “induction of chondrogenesis (metachromatic toluidine blue purple staining, proteoglycans)” value [16] was “marked ability to induce chondrogenesis”, the “formation of collagen type II (COL2A1), red fluorescence” value [17] was “induce the formation of collagen type II” and the “induction of SOX9 (Western blot)” value [18] was “clear induction”. The “induction of COL2A1 (Western blot)” value [19] was “clear induction” and the “induction of Aggrecan (Western blot)” value [20] was “clear induction”.
